Laboratory results taken from US20250057790A1, “AN INJECTABLE PHARMACEUTICAL COMPOSITION FOR THE TREATMENT OF RESPIRATORY DISEASES IN ANIMALS” (priority 2021, published 2025).

Legend:
[1] = system: microbes that cause respiratory disease in animals; experiment: Activity against the microbes that cause respiratory disease in animals (statement); format: cell-based
[2] = Injection site reactions in cattle; format: in vivo; details: injectable pharmaceutical compositions
Description: Cattle injected with injectable pharmaceutical compositions containing Compound (A) were evaluated for reactions at the injection site. These injection site reactions were compared to the injection site reactions of cattle injected with injectable pharmaceutical compositions containing Compounds (B) and (C). The compounds were formulated as aqueous solution injectable pharmaceutical compositions or as suspension injectable pharmaceutical compositions as indicated below. These formulations were prepared as described in Examples 1 and 2. Compound (A) was formulated as both an aqueous solution using the free base form of the compound and as a suspense using the dihydrochloride salt of the compound. The composition of the aqueous solution injectable pharmaceutical composition was 15% w/v of Compound A, 15% w/v Poloxamer […], 6% w/v Benzyl Alcohol, 7% w/v Citric Acid, and QS Water. The composition of the suspension injectable pharmaceutical composition was 15% w/v Compound A (17.5% w/v HCl salt of Compound A), 0.1% w/v Kolliphor HS 15 and QS Miglyol 812. Compound A was administered to the animals in a dose of 10 mg/kilogram of body weight. Compound (B) was formulated as both an aqueous solution using the free base form of the compound and as a suspense using the dihydrochloride salt of the compound. The composition of the aqueous solution injectable pharmaceutical composition was 15% w/v of Compound B, 15% w/v Poloxamer […], 6% w/v Benzyl Alcohol, 7% w/v Citric Acid, and QS Water. The composition of the suspension injectable pharmaceutical composition was 15% w/v Compound B (17.5% w/v HCl salt of Compound B), 0.1% w/v Kolliphor HS 15 and QS Miglyol 812. Compound A was administered to the animals in a dose of 10 mg/kilogram of body weight. Compound (C) was formulated as both an aqueous solution using the free base form of the compound. The composition of the aqueous solution injectable pharmaceutical composition was 10% w/v of Compound C, 15% w/v Poloxamer […], 6% w/v Benzyl Alcohol, 7% w/v Citric Acid, and QS Water. Compound A was administered to the animals in a dose of 10 mg/kilogram of body weight. Injection sites were examined clinically by a trained person, Size of the swelling is measured with a ruler to the closest 0.5 cm horizontally, vertical and depth. These three measured values were multiplied to an estimation of the volume of the square box surrounding the observed swelling.

CC(C)(N)[C@H](NC(=O)c1ccc(C#Cc2ccc(CNC3CC3)cc2)cc1)C(=O)NO [Compound B]
Activity against the microbes that cause respiratory disease in animals [1]: active against the microbes that cause respiratory disease in animals
Injection site reactions, overall assessment [2]: not resolved during the duration of the study
Injection site reactions, overall assessment ([2]; listed as Compound (B)): unacceptable injection site reactions

CC(C)(N)[C@H](NC(=O)c1ccc(C#Cc2ccc(CNCC(F)(F)F)cc2)cc1)C(=O)NO [Compound C]
Activity against the microbes that cause respiratory disease in animals [1]: active against the microbes that cause respiratory disease in animals
Injection site reactions, overall assessment [2]: not resolved during the duration of the study
Injection site reactions, overall assessment ([2]; listed as Compound (C)): unacceptable injection site reactions
